Literature values in patent US10799486B2 (NORTIC HOLDINGS INC., priority 2016, dated 2020).

Experiments:
[1] = nimodipine-treated subarachnoid hemorrhage (SAH) patients
[2] = oral administration

- concentration detected in the cerebrospinal fluid [1]: ≤ 12.5 ng/mL
- half-life equivalent to earlier elimination rates ([2]; man): 1 to 2 h
- Cmax in patients with hepatic cirrhosis versus normal ([2]; hepatic cirrhosis): approximately double that in normal
SMILES: COCCOC(=O)C1=C(C)NC(C)=C(C(=O)OC(C)C)C1c1cccc([N+](=O)[O-])c1 (stereo not drawn) [nimodipine, isopropyl 2-methoxyethyl 1,4-dihydro-2,6-dimethyl-4-(m-nitrophenyl)-3,5-pyridinedicarboxylate]
